Data set [1] deals with 3',5'-cyclic-AMP phosphodiesterase 4D (Homo sapiens, UniProt Q08499). Description: Inhibition of human PDE4D2 (86 to 413 residues) expressed in Escherichia coli BL21 codon-plus cells using [3H]cAMP as substrate incubated for 15 mins by liquid scintillation counting method.
Data set [2] can be described thus: Toxicity in Beagle dog assessed as animals exhibiting emesis at 1 mg/kg, po observed for 180 mins. Format: organism-based, Canis lupus familiaris. Conditions: in vivo, 3 h.
Data set [3] has as its target Phosphodiesterase isozyme 4 (Homo sapiens, UniProt Q86V67). Description: Inhibition of PDE4 (unknown origin).
Data set [4] has as its system Mus musculus. Put plainly: Anti-VaD activity against UCCAO-induced spatial memory deficient C57BL/6J mouse model assessed as improvement in spatial learning and memory by measuring reduction in escape latency at 0.7 mg/kg, po administered for 21 days by Morris water maze test. Type of data set: functional, organism-based.
Data set [5] relates to Mus musculus. Put plainly: Anti-VaD activity against UCCAO-induced spatial memory deficient C57BL/6J mouse model assessed as improvement in spatial learning and memory by measuring increase in frequency of platform area crossings at 0.7 mg/kg, po administered for 21 days by Morris water maze test. Type of data set: functional, organism-based.
The test system of data set [6] is Mus musculus. Put plainly: Anti-VaD activity against UCCAO-induced spatial memory deficient C57BL/6J mouse model assessed as improvement in spatial learning and memory by measuring increase in residence time on the platform at 0.7 mg/kg, po administered for 21 days by Morris water maze test. Format: functional, organism-based.

Active and inactive are the calls of the source. The rule behind the calls is not given here.

Sequence of 3',5'-cyclic-AMP phosphodiesterase 4D (Q08499 whole entry, the tested form may be a part): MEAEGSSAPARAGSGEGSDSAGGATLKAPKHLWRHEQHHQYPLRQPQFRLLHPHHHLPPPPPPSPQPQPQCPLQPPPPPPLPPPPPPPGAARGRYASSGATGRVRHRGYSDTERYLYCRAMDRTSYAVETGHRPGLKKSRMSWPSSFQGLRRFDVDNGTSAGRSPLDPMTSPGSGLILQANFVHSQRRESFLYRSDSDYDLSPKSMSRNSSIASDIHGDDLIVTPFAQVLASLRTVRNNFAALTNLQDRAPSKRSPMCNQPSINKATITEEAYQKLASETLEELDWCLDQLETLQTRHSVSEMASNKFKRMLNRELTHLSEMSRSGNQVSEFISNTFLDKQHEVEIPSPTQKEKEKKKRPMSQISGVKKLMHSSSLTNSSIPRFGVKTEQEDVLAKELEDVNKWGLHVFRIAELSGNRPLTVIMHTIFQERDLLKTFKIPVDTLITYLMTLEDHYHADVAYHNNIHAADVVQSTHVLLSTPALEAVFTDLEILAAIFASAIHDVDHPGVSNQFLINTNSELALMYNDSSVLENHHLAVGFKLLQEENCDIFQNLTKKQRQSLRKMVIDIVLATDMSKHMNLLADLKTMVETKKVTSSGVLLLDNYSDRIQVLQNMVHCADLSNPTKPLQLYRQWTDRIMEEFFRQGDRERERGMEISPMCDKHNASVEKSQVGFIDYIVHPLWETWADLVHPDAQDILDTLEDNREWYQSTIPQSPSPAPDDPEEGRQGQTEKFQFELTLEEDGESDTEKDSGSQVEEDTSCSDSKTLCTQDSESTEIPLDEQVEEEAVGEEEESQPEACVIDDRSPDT
Sequence of Phosphodiesterase isozyme 4 (Q86V67 whole entry): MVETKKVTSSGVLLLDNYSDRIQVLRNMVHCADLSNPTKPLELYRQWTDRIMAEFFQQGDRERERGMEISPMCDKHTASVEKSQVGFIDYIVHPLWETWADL

`COc1c(OCCCCCCCN2CCCC2)cc2oc3cc4c(c(O)c3c(=O)c2c1CC=C(C)C)C=CC(C)(C)O4`: in data set [1], the IC50 (in general, the concentration needed to halve the response being measured) is 148 nM.
Consider `COc1ccc(C2CNC(=O)C2)cc1OC1CCCC1` (stereo not given) [ROLIPRAM], for which, in data set [2], the Activity stood at 100%.
Take `COc1c(OCCCCCC(=O)O)cc2oc3cc4c(c(O)c3c(=O)c2c1CC=C(C)C)C=CC(C)(C)O4`: in data set [1], the IC50 came to 76 nM.
On to `CCOC(=O)COc1cc2oc3cc4c(c(O)c3c(=O)c2c(CC=C(C)C)c1OC)C=CC(C)(C)O4`, for which, in data set [1], the IC50 was above 10000 nM.
Same read-out and setting: then `COc1c(OCCCCCCBr)cc2oc3cc4c(c(O)c3c(=O)c2c1CC=C(C)C)C=CC(C)(C)O4`, with above 10000 nM.
On the same count and under the same terms, next, `COc1c(OCCCCCBr)cc2oc3cc4c(c(O)c3c(=O)c2c1CC=C(C)C)C=CC(C)(C)O4`: above 10000 nM; `COc1c(OCCCCCCCCC(=O)O)cc2oc3cc4c(c(O)c3c(=O)c2c1CC=C(C)C)C=CC(C)(C)O4`: 58 nM.
On the same count and under the same terms, next, `COc1c(OCCCN2CCCC2)cc2oc3cc4c(c(O)c3c(=O)c2c1CC=C(C)C)C=CC(C)(C)O4`: above 1000 nM; `CCOC(=O)CCCCCOc1cc2oc3cc4c(c(O)c3c(=O)c2c(CC=C(C)C)c1OC)C=CC(C)(C)O4`: above 10000 nM; `COc1c(OCC(=O)O)cc2oc3cc4c(c(O)c3c(=O)c2c1CC=C(C)C)C=CC(C)(C)O4`: 480 nM.
With `CCOC(=O)CCCCOc1cc2oc3cc4c(c(O)c3c(=O)c2c(CC=C(C)C)c1OC)C=CC(C)(C)O4`, the IC50 in data set [1] was above 10000 nM.
For the compound `CCOC(=O)CCCCCCCOc1cc2oc3cc4c(c(O)c3c(=O)c2c(CC=C(C)C)c1OC)C=CC(C)(C)O4`, the IC50 in data set [1] is above 10000 nM.
The same measure, in the same setting: next, `COc1c(O)cc2oc3cc4c(c(O)c3c(=O)c2c1CC=C(C)C)C=CC(C)(C)O4` [MANGOSTANIN]: 420 nM; `CCOC(=O)CCCOc1cc2oc3cc4c(c(O)c3c(=O)c2c(CC=C(C)C)c1OC)C=CC(C)(C)O4`: above 10000 nM.
The same measure, in the same setting: then `CCOC(=O)CCCCCCCCOc1cc2oc3cc4c(c(O)c3c(=O)c2c(CC=C(C)C)c1OC)C=CC(C)(C)O4`, with above 10000 nM.
Same read-out and setting: next, `COc1c(OCCCCCN2CCCC2)cc2oc3cc4c(c(O)c3c(=O)c2c1CC=C(C)C)C=CC(C)(C)O4`: 200 nM; `COc1c(OCCCCCCCC(=O)O)cc2oc3cc4c(c(O)c3c(=O)c2c1CC=C(C)C)C=CC(C)(C)O4`: 16 nM; `COc1c(OCCCCBr)cc2oc3cc4c(c(O)c3c(=O)c2c1CC=C(C)C)C=CC(C)(C)O4`: above 10000 nM.
With `COc1c(OCCCCCCN2CCCC2)cc2oc3cc4c(c(O)c3c(=O)c2c1CC=C(C)C)C=CC(C)(C)O4`, the IC50 in data set [1] came to 99 nM.
On the same count and under the same terms, then `COc1c(OCCCBr)cc2oc3cc4c(c(O)c3c(=O)c2c1CC=C(C)C)C=CC(C)(C)O4`, with above 10000 nM.
The compound `C=C(C)[C@@H]1CC[C@]2(C(=O)O)CC[C@]3(C)[C@H](CC[C@@H]4[C@@]5(C)CC[C@H](O)C(C)(C)[C@@H]5CC[C@]43C)[C@@H]12` [BETULINIC ACID] yielded an IC50 in data set [3] of 125000 nM.
Consider `COc1cc2c(cc1OC)C(=O)C(CC1CCN(Cc3ccccc3)CC1)C2` (stereo not given), for which the result in data set [4], in data set [5] and in data set [6] was Active.
For `COc1c(OCCCC(=O)O)cc2oc3cc4c(c(O)c3c(=O)c2c1CC=C(C)C)C=CC(C)(C)O4`, the IC50 in data set [1] is 44 nM.
The same measure, in the same setting: next, `COc1c(OCCCCN2CCCC2)cc2oc3cc4c(c(O)c3c(=O)c2c1CC=C(C)C)C=CC(C)(C)O4`: 622 nM; `CCOC(=O)CCCCCCOc1cc2oc3cc4c(c(O)c3c(=O)c2c(CC=C(C)C)c1OC)C=CC(C)(C)O4`: above 10000 nM; `COc1c(O)cc2oc3cc(O)c(CC=C(C)C)c(O)c3c(=O)c2c1CC=C(C)C` [MANGOSTIN]: 1310 nM.
On the same count and under the same terms, next, `COc1c(OCCCCC(=O)O)cc2oc3cc4c(c(O)c3c(=O)c2c1CC=C(C)C)C=CC(C)(C)O4`: 99 nM; `COc1c(OCCCCCCCBr)cc2oc3cc4c(c(O)c3c(=O)c2c1CC=C(C)C)C=CC(C)(C)O4`: above 10000 nM.

Values taken from ChEMBL document CHEMBL4402573, “Discovery and Optimization of α-Mangostin Derivatives as Novel PDE4 Inhibitors for the Treatment of Vascular Dementia” (J Med Chem, 2020).
